From patent US10314883B2, “Compositions and methods for regulating blood pressure” (University of Virginia Patent Foundation, priority 2015, dated 2019)
Like-named read-outs stand apart in the source and are kept apart here. No end group written: not given here.

What was measured:
[1] = test system: thoracodorsal arteries (TDA); assay: Pressure myography: agonist-induced constriction of pressurized TDAs from C57Bl/6 mice with pannexin inhibitors or Panx1 mimetic peptides; format: cell-based, mouse; conditions: for effect on phenylephrine-induced constriction of pressurized TDAs: TAT-linked peptides, C57Bl/6 TDAs
Protocol: The contractile responses of pressurized thoracodorsal arteries (TDA) were measured as previously described. Briefly, TDA were isolated and placed in cold Krebs-HEPES until cannulation in a pressure arteriograph (Danish MyoTechnology). After a 30 minute equilibration period, cumulative concentrations of contractile agonists were applied to the TDA pressurized at 80 mmHg, and the vessel was visualized with an Olympus IX-71 microscope attached to a Hamamatsu EM-CCD camera coupled to Slidebook imaging software. […] Lastly, maximal diameter was measured at the end of each experiment in calcium-free Krebs-HEPES supplemented with EGTA (1 mmol/L) and sodium nitroprusside (10 μmol/L). In cases where the vessels were not constricting to the contractile agonist, their viability was assessed by applying 40 mM KCl and only TDA reaching 30% of the maximal diameter were considered for analysis. The contractile responses, as well as the basal tone, are expressed as a percentage of the maximal diameter.
Using pressure arteriography on TDA dissected from C57Bl/6 mice (as described; and aortic ring contraction, as described), we measured the effect of pannexin inhibitors, probenecid and 10Panx1, on the contractile response upon stimulation with different vasoconstrictors: phenylephrine (FIG. 1A), noradrenaline (also called norepinephrine) (FIG. 1B), serotonin (also known as 5-HT) (FIG. 1C) and endothelin-1 (FIG. 1D). […] In contrast, ^10Panx1 and probenecid had no effect on contraction of TDA measured in response to cumulative concentrations of serotonin or endothelin-1 (FIGS. 1C-D; Table 1).
To determine the region of Panx1 necessary for channel activation in response to α1AR stimulation, we produced short peptides derived from the intracellular regions of the Panx1 channel. We generated two peptides mimicking unique mouse Panx1 (mPanx1) sequences in the first intracellular loop (IL1 and IL2) and two peptides mimicking unique mPanx1 sequences in the C-terminal region, one in second intracellular loop (CT1) and one in the C-terminal tail (CT2) (FIG. 4A scissors indicate caspase 3 cleavage site; Table 3). All peptides also contained a TAT sequence to facilitate entry into cells and we verified the intracellular localization of each peptide by immunofluorescence detection of the TAT sequence in TDAs pre-incubated with each peptide (FIG. 7A). We tested the effect of each peptide on phenylephrine-induced contractile responses in pressurized TDAs from C57Bl/6 mice (FIGS. 4B-E). […] Note that these differences in effects of phenylephrine were similar in magnitude to those observed in arteries from SMC-specific Panx1-knockout mice and littermate controls (FIG. 2C, Table 2).

[2] = test system: thoracodorsal arteries (TDA); assay: ATP release from intact TDA (luciferin:luciferase); format: cell-based, mouse; conditions: for ATP release from intact TDAs in response to agonist: five minutes of agonist, ARL67156 300 μmol/L
Protocol: Mouse TDAs of equal length were isolated and washed thoroughly to eliminate red blood cells. Vessels were placed in a well of a 96-well plate containing Krebs-HEPES solution supplemented with 1% BSA at 37° C. for 30 minutes to allow for degradation of any ATP released as a result of mechanical stimulation during manipulation of the vessel. For measurements performed on HEK cells: 24 hours after transfection, cells cultured in 24-well plates were cautiously washed twice with warm Krebs-HEPES-BSA and 300 μl of Krebs-HEPES-BSA was added to each well after the last wash as previously described. The plate was then kept in the incubator at 37° C. with 5% CO2 for 30 minutes to allow for degradation of ATP eventually released during the washes.
The ectonucleotidase inhibitor ARL67156 (300 μmol/L) was applied to each well. When indicated, ^10Panx1 (300 μmol/L) or the peptides analog to intracellular regions of Panx1 (3 μmol/L) were added along with the ARL67156. After a 30 minute incubation at 37° C. with the inhibitor(s), phenylephrine (100 μmol/L) or equivalent volume of Krebs-HEPES-BSA was added and the plate was kept at 37° C. After five minutes of phenylephrine stimulation, the media surrounding the TDA or the cells was transferred to an Eppendorf tube and centrifuged for five minutes at 5,000×g to eliminate eventual cell debris. Fifty microliters of the supernatant was transferred to a white-wall 96 well plate and placed in a FluoStar Omega luminometer. The ATP concentration was measured by adding 50 μL of luciferin:luciferase reagent (ATP bioluminescence assay kit HSII; Roche), which was injected into each well and the luminescence was immediately recorded. Data are expressed as a percent increase in ATP concentration compared to unstimulated condition. Each stimulated condition was compared to unstimulated condition performed on the same day, and all experiments were performed on at least 15 wells of HEK cells or three TDAs. Data were analyzed using a Kruskall Wallis test (non-parametric one-way ANOVA) followed by Dunn's post-hoc test.
To determine if the TDA response involved release of ATP, we dissected TDAs from C57Bl/6 mice and measured the accumulation of extracellular ATP in response to various agonists in the medium (FIG. 1E, inset). The TDAs were placed in a well of a 96 well plate in Krebs-HEPES solution and treated with the ectonucleotidase inhibitor ARL67156 for 30 minutes. Next, arteries were treated with a contractile agonist for five minutes and the amount of ATP in the media surrounding the vessel was determined using the ATP bioluminescence assay kit HSII (Roche).

[3] = test system: thoracodorsal arteries (TDA); conditions: for EC50: read-out: EC50 of agonist for TDA constriction
[4] = test system: thoracodorsal arteries (TDA); assay: tissue or blood; conditions: Mus musculus
[5] = in presence of the named peptide
[6] = in presence of ^10Panx1 (300 μmol/L) or probenecid (2 mmol/L)
[7] = pannexin inhibitors, ^10Panx1 300 μmol/L, probenecid 2 mmol/L
[8] = TDAs from Cre^+/Panx1^FL mice, tamoxifen-injected (SMC Panx1 knockout)
[9] = TDAs from Cre^+/Panx1^WT mice, tamoxifen-injected
[10] = TDAs from Cre^−/Panx1^FL mice, tamoxifen-injected
[11] = TDAs from Cre^−/Panx1^WT mice, tamoxifen-injected
[12] = read-out: EC50 of agonist for TDA constriction, TDAs from Cre^+/Panx1^FL mice, tamoxifen-injected (SMC Panx1 knockout)
[13] = read-out: EC50 of agonist for TDA constriction, TDAs from Cre^+/Panx1^WT mice, tamoxifen-injected
[14] = read-out: EC50 of agonist for TDA constriction, TDAs from Cre^−/Panx1^FL mice, tamoxifen-injected
[15] = read-out: EC50 of agonist for TDA constriction, TDAs from Cre^−/Panx1^WT mice, tamoxifen-injected

YGRKKQRRR [TAT]
effect on phenylephrine-induced constriction of pressurized TDAs [1]: no significant effect
EMAX of phenylephrine for TDA constriction [1, 5]: 32.0 ± 6.21 percentage of maximal diameter
effect on phenylephrine-induced ATP release from intact TDAs ([2]; phenylephrine 100 μmol/L, ^10Panx1 300 μmol/L, peptides 3 μmol/L): no effect

CCCN(CCC)S(=O)(=O)c1ccc(C(=O)O)cc1 [Probenecid]
EMAX of endothelin-1 for TDA constriction [1, 6]: 34.6 ± 4.50 percentage of maximal diameter
EMAX of noradrenaline for TDA constriction [1, 6]: 74.9 ± 3.04 percentage of maximal diameter
EMAX of phenylephrine for TDA constriction [1, 6]: 72.6 ± 3.51 percentage of maximal diameter
EMAX of serotonin for TDA constriction [1, 6]: 39.5 ± 3.29 percentage of maximal diameter
effect on contraction of TDA in response to cumulative concentrations of serotonin or endothelin-1 [1, 7]: had no effect
effect on phenylephrine- and noradrenaline-mediated contraction of TDA [1, 7]: significantly inhibited

CC[C@H](C)[C@H](NC(=O)[C@H](CC(=O)O)NC(=O)[C@H](CC(C)C)NC(=O)[C@H](Cc1c[nH]cn1)NC(=O)[C@@H]1CSSC[C@H](N)C(=O)N[C@@H](CO)C(=O)N[C@H]2CSSC[C@H](NC(=O)[C@H](CCC(=O)O)NC(=O)[C@H](CCCCN)NC(=O)[C@H](CC(=O)O)NC(=O)[C@H](CCSC)NC(=O)[C@H](CC(C)C)NC(=O)[C@H](CO)NC(=O)[C@H](CO)NC2=O)C(=O)N[C@@H](C(C)C)C(=O)N[C@@H](Cc2ccc(O)cc2)C(=O)N[C@@H](Cc2ccccc2)C(=O)N1)C(=O)N[C@H](C(=O)N[C@@H](Cc1c[nH]c2ccccc12)C(=O)O)[C@@H](C)CC [Endothelin-1, endothelin-1]
EMAX of agonist for TDA constriction [3, 8]: 38.9 ± 6.90 percentage of maximal diameter
EMAX of agonist for TDA constriction [3, 9]: 42.5 ± 4.82 percentage of maximal diameter
EMAX of agonist for TDA constriction [3, 10]: 42.2 ± 6.50 percentage of maximal diameter
EMAX of agonist for TDA constriction [3, 11]: 41.8 ± 4.95 percentage of maximal diameter
EC50 [3, 8]: 30.1 ± 14.6 nM
EC50 [3, 9]: 5.64 ± 2.94 nM
EC50 [3, 10]: 3.77 ± 0.56 nM
EC50 [3, 11]: 18.4 ± 10.9 nM
ATP release from intact TDAs in response to agonist [2]: neither serotonin nor endothelin-1 promoted ATP release

mPanx1 178-VGQSLWEISE-187 (SEQ ID NO: 4) linked with a TAT sequence (YGRKKQRRR) (also: linked with TAT sequence (YGRKKQRRR), end not given here; UniProt Q9JIP4 178-187, looked up, fragment) [IL1]
effect on phenylephrine-induced constriction of pressurized TDAs [1]: did not affect
EMAX of phenylephrine for TDA constriction [1, 5]: 32.3 ± 3.81 percentage of maximal diameter

NCCc1c[nH]c2ccc(O)cc12 [Serotonin]
EMAX of agonist for TDA constriction [3, 8]: 38.2 ± 5.60 percentage of maximal diameter
EMAX of agonist for TDA constriction [3, 9]: 40.1 ± 4.59 percentage of maximal diameter
EMAX of agonist for TDA constriction [3, 10]: 30.4 ± 1.78 percentage of maximal diameter
EMAX of agonist for TDA constriction [3, 11]: 36.1 ± 2.68 percentage of maximal diameter
ATP release from intact TDAs in response to agonist [2]: neither serotonin nor endothelin-1 promoted ATP release
EC50 [4, 12]: 14.2 ± 5.53 nM
EC50 [4, 13]: 40.7 ± 12.2 nM
EC50 [4, 14]: 65.2 ± 40.9 nM
EC50 [4, 15]: 23.8 ± 5.07 nM

NC[C@H](O)c1ccc(O)c(O)c1 [Noradrenaline, noradrenaline]
EMAX of agonist for TDA constriction [3, 8]: 56.4 ± 5.61 percentage of maximal diameter
EMAX of agonist for TDA constriction [3, 9]: 48.2 ± 1.82 percentage of maximal diameter
EMAX of agonist for TDA constriction [3, 10]: 45.6 ± 5.40 percentage of maximal diameter
EMAX of agonist for TDA constriction [3, 11]: 41.4 ± 5.10 percentage of maximal diameter
EC50 [4, 12]: 50500 ± 24800 nM
EC50 [4, 13]: 6780 ± 3200 nM
EC50 [4, 14]: 10300 ± 1300 nM
EC50 [4, 15]: 6280 ± 1450 nM

mPanx1 381-IPTSLQTKGE-390 (SEQ ID NO: 6) linked with a TAT sequence (YGRKKQRRR) (also: linked with TAT sequence (YGRKKQRRR), end not given here; UniProt Q9JIP4 381-390, looked up, fragment) [CT2]
effect on phenylephrine-induced constriction of pressurized TDAs [1]: did not affect
EMAX of phenylephrine for TDA constriction [1, 5]: 52.3 ± 4.86 percentage of maximal diameter
